Measured values published in patent publication US4298739A, “Novel carbostyril derivatives” (priority 1977, dated 1981).
Where “and” joins values, the source holds several entries; their conditions need not be identical. Identical values can stand only once.

Assays:
[1] = Concentration in blood of male Wister rats; type: in vivo; conditions: 30 mg/kg water suspension, 30 mg/kg; for Concentration in blood: Rat
Experimental: (§1) A water suspension of test compound was administered at the dose of 30 mg/kg to the overnight fasted male Wister rats and male beagle dogs, and after a predetermined period of time, blood was collected from said animals to obtain plasma. 2 to 3 Milliliters of 0.1 N-NaOH and 2 ml of CHCl3 were added to 1 ml of the obtained plasma, and the mixture was shaken and extracted in a shaker for 2 hours, and after centrifugal separation, the organic layer was washed with 2 ml of 0.1 N-HCl. This organic layer was then subjected to a freezing and thawing treatment, and after evaporating chloroform under nitrogen stream, the residue was redissolved in 100 μl of chloroform and spotted on a thin layer plate of "Silica Gel 60 F254 " manufactured by Merck & Co., Inc. This was developed in a chloroform: butanol mixed solvent (5:1) and determined by measuring the spots with same Rf value as the test compound according to the absorbance method by using Shimazu CS-910 Thin Layer Chromato-scanner,and therefrom the concentration (μg/ml) of test compound A in blood was determined.

[2] = Concentration in blood of male beagle dogs; type: in vivo; conditions: 30 mg/kg water suspension, 30 mg/kg; for Concentration in blood: Beagle dog
Experimental: as §1

CN(C(=O)CCCOc1ccc2[nH]c(=O)ccc2c1)C1CCCCC1 [compound 16, 6-[3-(N-Methyl-N-cyclohexylaminocarbonyl)propoxy]carbostyril]
Concentration in blood ([1]; 1 hr., 60 min): 1060 ng/mL and 880 ng/mL | Concentration in blood ([1]; 4 hr., 240 min): 710 ng/mL and 830 ng/mL | Concentration in blood ([1]; 12 hr., 720 min): 730 ng/mL and 780 ng/mL | concentration at 1 h ([1]; rat, plasma, 1 hr.): 900 ng/mL | concentration at 4 h ([1]; rat, plasma, 4 hr.): 1100 ng/mL | concentration at 12 h ([1]; rat, plasma, 12 hr.): 640 ng/mL | Concentration in blood ([2]; 1 hr., 60 min): 130 ng/mL | Concentration in blood ([2]; 2 hr., 120 min): 310 ng/mL | Concentration in blood ([2]; 6 hr., 360 min): 210 ng/mL | Concentration in blood ([2]; 12 hr., 720 min): 70 ng/mL | concentration at 1 h ([2]; dog, plasma, 1 hr.): 230 ng/mL | concentration at 2 h ([2]; dog, plasma, 2 hr.): 280 ng/mL | concentration at 6 h ([2]; dog, plasma, 6 hr.): 110 ng/mL | concentration at 12 h ([2]; dog, plasma, 12 hr.): 40 ng/mL
